# What was measured:
# [1] = tested on: HL-60; experiment: Cytotoxicity against human vincristine-resistant HL60 cells; format: functional, cell-based
# [2] = molecular target: T1, Peptide deformylase (Escherichia coli) (UniProt Q9JN24); experiment: Inhibition of Escherichia coli peptide deformylase at 100 uM after 1 hr by fluorescence polarization based competition assay
# T1 sequence (whole entry): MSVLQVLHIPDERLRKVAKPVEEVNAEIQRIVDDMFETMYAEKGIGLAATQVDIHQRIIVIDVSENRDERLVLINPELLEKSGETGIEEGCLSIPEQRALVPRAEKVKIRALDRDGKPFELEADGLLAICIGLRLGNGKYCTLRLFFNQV
# [3] = molecular target: T2, Interstitial collagenase (Homo sapiens) (UniProt P03956); experiment: Inhibition of human recombinant MMP1 at 100 uM after 1 hr by fluorescence polarization based competition assay
# T2 sequence (whole entry): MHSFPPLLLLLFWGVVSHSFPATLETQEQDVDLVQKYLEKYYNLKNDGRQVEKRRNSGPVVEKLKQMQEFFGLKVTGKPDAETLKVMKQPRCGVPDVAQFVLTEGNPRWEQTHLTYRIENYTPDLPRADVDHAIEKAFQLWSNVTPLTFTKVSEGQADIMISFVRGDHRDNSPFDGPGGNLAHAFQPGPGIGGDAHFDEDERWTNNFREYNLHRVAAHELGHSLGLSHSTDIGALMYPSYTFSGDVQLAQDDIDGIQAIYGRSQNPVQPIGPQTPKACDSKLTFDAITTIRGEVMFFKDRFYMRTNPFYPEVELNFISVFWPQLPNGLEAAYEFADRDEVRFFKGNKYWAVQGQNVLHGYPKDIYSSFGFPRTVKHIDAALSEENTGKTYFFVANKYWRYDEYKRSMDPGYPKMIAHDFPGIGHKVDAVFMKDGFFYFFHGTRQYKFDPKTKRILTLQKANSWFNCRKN
# [4] = molecular target: T3, Peptide deformylase (Escherichia coli, UniProt Q9JN24); experiment: Inhibition of Escherichia coli peptide deformylase after 1 hr by fluorescence polarization based competition assay
# T3 sequence (Q9JN24 whole entry): T1 sequence (whole entry)
# [5] = Cytotoxicity against human ALL3 cells; format: functional, cell-based
# [6] = Cytotoxicity against human CWR22 cells; format: functional, cell-based
# [7] = molecular target: T4, Aminopeptidase N (Sus scrofa) (UniProt P15145); experiment: Inhibition of porcine kidney microsomal aminopeptidase N at 100 uM after 1 hr by fluorescence polarization based competition assay
# T4 sequence (whole entry): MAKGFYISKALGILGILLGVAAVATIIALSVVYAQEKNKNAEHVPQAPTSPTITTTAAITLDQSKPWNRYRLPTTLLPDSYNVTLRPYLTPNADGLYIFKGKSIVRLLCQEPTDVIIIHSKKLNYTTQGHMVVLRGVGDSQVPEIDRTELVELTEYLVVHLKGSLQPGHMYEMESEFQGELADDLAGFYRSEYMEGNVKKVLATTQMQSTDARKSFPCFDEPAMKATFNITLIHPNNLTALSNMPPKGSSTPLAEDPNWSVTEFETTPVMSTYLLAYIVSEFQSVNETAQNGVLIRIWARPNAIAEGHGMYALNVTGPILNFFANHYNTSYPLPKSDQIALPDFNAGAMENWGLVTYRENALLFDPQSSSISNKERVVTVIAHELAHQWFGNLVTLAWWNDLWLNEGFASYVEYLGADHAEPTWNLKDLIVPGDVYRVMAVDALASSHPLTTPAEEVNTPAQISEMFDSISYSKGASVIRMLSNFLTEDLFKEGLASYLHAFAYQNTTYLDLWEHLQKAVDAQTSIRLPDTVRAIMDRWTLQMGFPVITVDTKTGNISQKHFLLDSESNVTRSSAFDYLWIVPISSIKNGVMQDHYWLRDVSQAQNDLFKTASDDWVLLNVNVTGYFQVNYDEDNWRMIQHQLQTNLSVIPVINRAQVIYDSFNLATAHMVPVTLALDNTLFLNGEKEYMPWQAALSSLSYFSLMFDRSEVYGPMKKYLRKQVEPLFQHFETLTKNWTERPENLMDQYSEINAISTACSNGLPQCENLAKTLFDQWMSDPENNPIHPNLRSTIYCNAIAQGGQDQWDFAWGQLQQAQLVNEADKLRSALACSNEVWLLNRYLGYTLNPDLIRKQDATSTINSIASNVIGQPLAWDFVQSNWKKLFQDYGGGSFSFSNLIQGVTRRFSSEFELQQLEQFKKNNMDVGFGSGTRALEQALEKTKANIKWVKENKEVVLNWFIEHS
# [8] = tested on: HEK293; experiment: Cytotoxicity against human HEK293 cells; format: cell-based
# [9] = molecular target: T5, Peptide deformylase, mitochondrial (Homo sapiens) (UniProt Q9HBH1); experiment: Inhibition of human peptide deformylase at 100 uM after 1 hr by fluorescence polarization based competition assay
# T5 sequence (whole entry): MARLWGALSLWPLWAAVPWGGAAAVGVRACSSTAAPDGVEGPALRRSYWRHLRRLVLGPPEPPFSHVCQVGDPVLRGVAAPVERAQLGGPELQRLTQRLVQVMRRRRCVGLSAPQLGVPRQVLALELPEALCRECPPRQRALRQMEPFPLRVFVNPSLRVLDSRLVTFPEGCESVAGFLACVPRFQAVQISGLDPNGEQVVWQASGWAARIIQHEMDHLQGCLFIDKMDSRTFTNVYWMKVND
# [10] = tested on: MOLT-3; experiment: Cytotoxicity against human MOLT3 cells; format: functional, cell-based
# [11] = tested on: HL-60; experiment: Antitumor activity against human HL60 cells xenografted in athymic nude mouse assessed as tumor growth delay at 15 mg/kg, ip administered 3 times a week for 2 weeks; format: functional; settings: route intraperitoneal
# [12] = tested on: Jurkat; experiment: Cytotoxicity against human Jurkat cells; format: functional, cell-based
# [13] = tested on: Y79; experiment: Cytotoxicity against human Y79 cells; format: functional, cell-based
# [14] = Cytotoxicity against human Meso47 cells; format: functional, cell-based
compound,measurement,setting,value
COc1cc(C(=O)c2coc3c2C(=O)C(=O)C(Br)=C3Br)cc(OC)c1OC,IC50,[1],12 µM
same,inhibition,[2],32%
same,inhibition,[3],38%
same,IC50,[4],> 100 µM
same,IC50,[5],10 µM
same,IC50,[6],21 µM
same,inhibition,[7],50%
same,IC50,[8],16 µM
same,inhibition,[9],100%
same,IC50,[10],2.9 µM
same,Activity,[11],40%
same,IC50,[12],2.8 µM
same,IC50,[13],33 µM
same,IC50,[14],37 µM
